Experiment: stability of budesonide dissolved in water/ethanol at low pH
Type: physicochemical
Settings: pH of 3.5; dissolved in a mixture of water and ethanol
Description: In the case of steroids, these are preferably used in suspended form, especially fluticasone. This is particularly true if the solvent used is only water without ethanol. If ethanol is added, the steroid may also be formulated as a solution.

stability in solution: sufficiently stable
Compound: CCCC1O[C@@H]2C[C@H]3[C@@H]4CCC5=CC(=O)C=C[C@]5(C)[C@H]4[C@@H](O)C[C@]3(C)[C@]2(C(=O)CO)O1 (stereo partly shown) [budesonide]
